Assay results published in patent publication US20100216875A1, “METHODS OF TREATING ALZHEIMER'S DISEASE” (priority 2006, published 2010).

How the values were obtained:
[1] = tested on: brain and synaptosomal Aβ; assay: guinea pig brain and synaptosome Aβ by ELISA after icv infusion; type: in vivo; conditions: icv 0.15 mg/kg/day
Excerpt: Guinea pig (gp) is a natural, non-transgenic model of human APP processing gpAPP is 98% homologous to human APP, contains the human wild-type β-secretase site, and gpAβ is identical to human Aβ. Brain synaptosome preparations are enriched with neuronal synapses which are the sites at which regulated secretion occurs and are an in vivo measure of regulated secretory secretion CTFβ is an APP fragment that results from p-secretase cleavage of APP and reflects in vivo β-secretase activity. […] E64d was icy administered into gp brains (0.15 mg/kg/day) for 7 or 30 days. […] In FIG. 5b, total synaptosomal Aβ is shown.
CA074Me (0.15 mg/kg/day) was icy infused into gp brains with mini pumps. […] An equal reduction of Aβ40 and Aβ42 is consistent with the inhibitor affecting p-secretase activity
At the end of the treatment, the brains were isolated and extracted with guanidine hydrochloride and Aβ40 and Aβ42 levels were determined using ELISA.
Cathepsin B inhibitors were administered directly into the brain by icy infusion with minipumps in time course studies at different doses. Guinea pigs were infused with compounds using Alzet pumps (2.5 μl/hr, with compounds at 1 mg/ml in saline) for 7 and 30 days, and other times. This initial dose of compound was selected because E64d and CA074Me are effective at this dose. Each treatment group consisted of eight to ten guinea pigs, including the vehicle control group.
At the end of each experiment, animals were sacrificed and half the brain was taken for ELISA measurement of Aβ40 and Aβ42 levels. The other half was isolated for synaptosome preparations for ELISA measurement of Aβ40 and Aβ42 content in nerve terminals. Synaptosomes were prepared by homogenization in isotonic sucrose (320 mM), pH 7.4, 1 mM EDTA, 0.25 mM dithiothreitol, and 30 U/MI RNAse inhibitor. The homogenate was centrifuged at 1000×g for 10 minutes. The supernatant was loaded on a Sucrose-Percoll discontinuous gradient and centrifuged at 32,000×g for 5 minutes (80) Enriched synaptosomes were washed in PBS, and centrifuged at 12,000×g for 4 minutes. The supernatant was removed, and the synaptosome containing pellet was resuspended in 50% OptiPrep (Accurate Chemica. Westbury, N.Y.), loaded on an OptiPrep discontinuous flotation gradient (9, 12.5, 25, and 35%) and centrifuged at 10,000×g for 20 minutes. The synaptosomes were obtained at the […]
For quantitative analysis of Aβ peptides, an enzyme-linked immunosorbent assay (ELISA) was used to measure the levels of total Aβ, Aβtotal, Aβ40 and Aβ42 in the brains and synaptosomes of guinea pigs (Biosource International, Camarillo, Calif.) Aβtotal, Aβ40, Aβ42 was extracted from guinea pig brains or from synaptosomes by guanidine hydrochloride and quantified as described by the manufacturer. This assay extracted the total Aβ peptide from the brain (both soluble and aggregated). Tissue samples were homogenized in 5M guanidine buffer (5M guanidine HCl in 50 mM Tris-Cl, pH 8.3; Sigma-Aldrich, St. Louis, Mo.) at 1:10 w/v dilution. Homogenates were agitated at room temperature for 3-4 hours, then stored at −20° C. The day before running the ELISA, the tissue samples were diluted further 1:10 to provide a final guanidine concentration of 0.5M. These diluted homogenates were spun down at 14,000 rpm for 20 minutes at 4° C. and supernatants used for Aβ determination by ELISA (84-86). Brain and synaptosome extracts were assayed as diluted in 0.5M guanidine. In addition, Aβ40 and Aβ42 were assayed using ELISA using 6E10 as the capture antibody and Rb209 and Rb321 as reporter antibodies, respectively, for Aβ40 and Aβ42 (96).

[2] = tested on: transgenic APPIn mice (London mutant human APP); assay: brain Aβ and amyloid plaque load in transgenic APPIn mice; type: in vivo, mouse; conditions: icv 0.015 mg/kg/day, 28 days; for reduction of amyloid plaque load: cortex
Protocol: Transgenic mice expressing human APP containing the London mutation (APPIn) mimic AD function and pathology in that they are cognitively deficient, have brain amyloid plaque and elevated Aβ (8). […] CA074Me or E64d were administered by icy infusion in brains (0.015 mg/kg/day) for 28 days (8 animals per treatment group).
APPIn mice express the clinical mutant human APP (APP[V717I]) which has a mutation at the γ-secretase site that results in the overproduction of Aβ and the behavioral and neuropathology that develop an AD phenotype (8). These mice show early stage deficits in cognition and memory at 3-9 months age. At the later age of 8-12 months, amyloid plaques have developed in brains of these mice, with increased levels of Aβ40 and Aβ42 peptides in the brain. […] Thus, this AD mouse model allows testing of select reversible compounds to improve cognition and to reduce brain levels of Aβ peptides and amyloid plaques.
Direct icy infusion into the brain was the first route of administration to be tested to establish the effectiveness of reversible inhibitors in the brain to provide cognitive improvement, and reduction in brain Aβ peptides and amyloid plaques. Icy infusion was performed as described above for the irreversible inhibitors with use of the Alzet minipump. The initial dose utilized was the same dosage used for E64d and CA074Me in the APPIn mice or APPswe/In mice Administration of these compounds began at approximately 1-2 months of age and infusion was conducted for periods of 1, 2, 4, and 8 months (or other time periods). Administration of the select reversible compounds by direct icy infusion into mouse brains was conducted initially at 0.025 μl/hr of 1 mg/ml, other doses may be examined based on results with the first dose. Each time point was conducted with about 8-10 animals and 8-10 normal control animals (age-matched) (or greater number of mice per treatment group, if necessary, for appropriate statistical evaluation). At the end of each of these infusion periods, cognitive testing and assessment of Aβ peptide levels with plaque pathology was evaluated. At each of these time points, mice were tested for cognition, and then sacrificed for evaluation of Aβ and neuropathology in the brain
After behavioral testing was completed, the mice were sacrificed for analyses of Aβ40 and Aβ42 peptide levels, and neuropathology. One half brain (one hemisphere) was utilized to prepare brain extracts for measurement of Aβ40 and Aβ42 levels by ELISA assays, and the other half brain was used for neuropathological evaluation. Procedures for preparation of brain extracts and ELISA assays for Aβ peptides are those used for analyses of guinea pig brains
Aβ-related neuropathology was assessed in cortex and hippocampus of brains. The relative extent of Aβ immunoreactivity in neurons and glial cells was assessed. Immunostaining for Aβ was conducted as described previously (58) Aβ-related neuropathology was assessed in cortex and hippocampus of brains, as well as other regions of the brain as controls. Brain tissue was fixed in 4% paraformaldehyde overnight, and then processed to paraffin. Serial sections were obtained, deparaffinized and washed in TBS buffer. Each section was blocked with appropriate normal serum (mouse or rabbit), and subjected to primary anti-Aβ antibody for detection of amyloid deposits. Sections were then stained with DAB ([…]) with the Vector ABC Elite kit (Vector Laboratories). Amyloid areas were imaged with microscopic computer-assisted analysis system using the NIH Image Analysis Software.

| SMILES | reduction of Aβ40 in brain extracts ([1]; 7 days) | reduction of Aβ42 in brain extracts ([1]; 7 days) | reduction of total Aβ in brain extracts ([1]; 7 days) | reduction of total synaptosomal Aβ ([1]; 7 days) | reduction of Aβ40 in brain extracts ([1]; 30 days) | reduction of Aβ42 in brain extracts ([1]; 30 days) | reduction of total Aβ in brain extracts ([1]; 30 days) | reduction of total synaptosomal Aβ ([1]; 30 days) | reduction of Aβ40 in the brain ([1]; duration not stated) | reduction of Aβ42 in the brain ([1]; duration not stated) | decrease in brain Aβ40 [2] | decrease in brain Aβ42 [2] | reduction of amyloid plaque load [2] | reduction of brain Aβ ([1]; duration not stated) |
| --- | --- | --- | --- | --- | --- | --- | --- | --- | --- | --- | --- | --- | --- | --- |
| CCCNC(=O)[C@H]1O[C@@H]1C(=O)N[C@H](C(=O)N1CCC[C@H]1C(=O)OC)[C@@H](C)CC [CA074Me] | 50% | 50% | 50% | 45% | 50% | 50% | 60% | 50% | 50-60% | 50-60% | 50% | 50% | significantly reduce amyloid load | – |
| CCOC(=O)[C@H]1O[C@@H]1C(=O)N[C@@H](CC(C)C)C(=O)NCCC(C)C [E64d] | – | – | 30% | 27% | – | – | 50% | 50% | – | – | 50% | 50% | significantly reduce amyloid load | 50% |
